Columns and labels:
[1] = target: T1, purified bovine lung membrane-bound aminopeptidase P (Bos taurus, UniProt E1B735); experiment: Aminopeptidase P inhibition, release of arginine from Arg-Pro-Pro (fluorescent assay); type: biochemical
T1 construct: from tissue; host or cells: bovine lung
T1 sequence (E1B735 22-673): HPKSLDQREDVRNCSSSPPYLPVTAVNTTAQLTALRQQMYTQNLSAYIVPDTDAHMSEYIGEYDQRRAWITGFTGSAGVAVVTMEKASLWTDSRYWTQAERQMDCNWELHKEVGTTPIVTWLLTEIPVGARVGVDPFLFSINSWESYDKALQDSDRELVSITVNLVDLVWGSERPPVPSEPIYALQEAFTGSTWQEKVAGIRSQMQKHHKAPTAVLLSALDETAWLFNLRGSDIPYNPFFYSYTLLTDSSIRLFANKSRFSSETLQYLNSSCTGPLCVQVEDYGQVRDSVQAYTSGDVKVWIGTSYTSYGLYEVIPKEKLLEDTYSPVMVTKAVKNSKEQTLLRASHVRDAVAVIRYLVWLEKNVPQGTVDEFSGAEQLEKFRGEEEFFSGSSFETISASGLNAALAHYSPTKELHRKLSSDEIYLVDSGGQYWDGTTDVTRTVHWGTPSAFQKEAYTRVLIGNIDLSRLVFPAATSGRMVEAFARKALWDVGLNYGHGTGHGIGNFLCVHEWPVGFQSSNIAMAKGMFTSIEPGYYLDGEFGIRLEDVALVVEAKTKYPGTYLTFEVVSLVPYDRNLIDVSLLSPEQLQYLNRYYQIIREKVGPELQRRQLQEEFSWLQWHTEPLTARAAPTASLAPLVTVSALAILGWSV
Procedure: The IC50 of the compound of the present invention in relation to aminopeptidase P was also determined. […] The specificity of the compound of the present invention for other aminopeptidases was similarly determined as described in the Experimental Procedures herein. […] The following enzymes had IC50 values>800 μM: aminopeptidase A, angiotensin converting enzyme, dipeptidyl-peptidase I-like activity, bestatin-sensitive/amastatin-insensitive membrane dipeptidase (29), microsomal dipeptidase, endopeptidase 24.11, endopeptidase 24.15, and prolyl oligopeptidase.
(§1) Enzymes--Membrane-bound aminopeptidase P was purified to homogeneity from bovine lung (14) and from rat lung. Partially purified membrane-bound aminopeptidase P from human lung was obtained by treatment of lung microsomes with phosphatidylinositol-specific phospholipase C (B. thuringiensis) (ICN, Costa Mesa, Calif.) followed by centrifugation as described previously (14). Membrane dipeptidase was purified from rat lung microsomes (manuscript in preparation). Recombinant E. coli aminopeptidase P (22) and purified lamb kidney prolyl oligopeptidase (23) were generally supplied by Dr. Tadashi Yoshimoto (Nagasaki University). Purified porcine kidney prolidase and purified porcine kidney aminopeptidase M was obtained from Sigma (St. Louis, Mo.).
(§2) Enzyme Kinetics--Aminopeptidase P activity was determined by measuring the release of arginine from Arg-Pro-Pro by a fluorescent assay described previously (14). […] Each mixture was run in duplicate. Aliquots were removed from each incubation mixture at various times and assayed for the amount of arginine present to determine the reaction velocity. In general, reaction velocities were calculated from data representing less than 20% cleavage of substrate. Ki and Ki ' (=αKi) were determined from plots of 1/v versus concentration of inhibitor "i" (26) and S/v versus concentration of inhibitor "i" (27), respectively. These parameters were also determined from the slope replot and 1/v-intercept replot, respectively, of the 1/v versus 1/S plot (28). See e.g., FIG. 1B. The values from the two treatments of the data were averaged for each experiment. Experiments for each enzyme preparation were performed twice and the results averaged.

[2] = tested on: blood pressure response to Bk; experiment: Blood pressure response to intravenous bradykinin in the rat; type: in vivo; conditions: rats; intravenously, administered over a one hour period
Procedure: While aminopeptidase P appears to be quantitatively less important than ACE, there is now evidence that aminopeptidase P is nevertheless a physiologically important regulator of the blood pressure response to Bk in the rat (15,41). […] Thus, aminopeptidase P appears to play a significant role in the pulmonary degradation of Bk.
See e.g., Table 2. […] A typical therapeutically effective dose of a compound of the present invention is from about 0.008 mg/kg to 8.0 mg/kg, when given intravenously.

[3] = target: T2, recombinant E. coli aminopeptidase P (Escherichia coli, UniProt P15034); experiment: Aminopeptidase P inhibition, release of arginine from Arg-Pro-Pro (fluorescent assay); type: biochemical
T2 construct: supplied by Dr. Tadashi Yoshimoto (Nagasaki University)
T2 sequence (P15034 whole entry): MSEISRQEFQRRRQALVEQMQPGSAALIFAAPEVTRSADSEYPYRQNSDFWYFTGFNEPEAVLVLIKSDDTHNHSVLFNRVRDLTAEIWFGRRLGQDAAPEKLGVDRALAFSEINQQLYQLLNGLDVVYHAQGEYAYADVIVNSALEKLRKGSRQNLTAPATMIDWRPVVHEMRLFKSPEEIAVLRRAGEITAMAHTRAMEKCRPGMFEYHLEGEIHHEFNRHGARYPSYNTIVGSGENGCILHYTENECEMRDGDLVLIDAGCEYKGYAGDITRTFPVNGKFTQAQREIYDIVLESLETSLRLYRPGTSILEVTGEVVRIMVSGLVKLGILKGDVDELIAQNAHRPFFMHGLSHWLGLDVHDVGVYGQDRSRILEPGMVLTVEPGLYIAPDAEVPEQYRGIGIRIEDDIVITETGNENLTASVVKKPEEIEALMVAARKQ
Text: as §1, §2

C[C@H](NC(=O)[C@@H]1CCCN1C(=O)[C@@H]1CCCN1C(=O)[C@@H](O)[C@H](N)Cc1ccccc1)C(N)=O [apstatin, N-[(2S, 3R)-3-amino-2-hydroxy-4-phenylbutanoyl]-L-prolyl-L-prolyl-Lalaninamide]
IC50 ([1]; bovine lung aminopeptidase P, cleavage of 0.5 μM Arg-Pro-Pro in 0.1M Hepes, pH 8.0 at 37° C.): 9.4 µM | type of inhibition ([1]; bovine lung aminopeptidase P, slope and 1/v-axis intercept replots): linear mixed-type | α (αKi = equilibrium constant for enzyme-inhibitor binding at infinite substrate concentration) ([1]; bovine lung, purified membrane-bound form): 4.2 | Ki ([1]; bovine lung, purified membrane-bound form, substrate Arg-Pro-Pro, 0.1 M Hepes pH 8.0, 39° C.): 7.8 µM | dose at which Bk potentiation has been observed [2]: 0.08 to 0.8 mg/kg | α (αKi = equilibrium constant for enzyme-inhibitor binding at infinite substrate concentration) ([3]; E. coli, recombinant): 2.5 | Ki ([3]; E. coli, recombinant, substrate Arg-Pro-Pro, 0.1 M Hepes pH 8.0, 39° C.): 14 µM | type of inhibition ([3]; recombinant E. coli aminopeptidase P): linear mixed-type

From patent publication US5656603A (Loyola University of Chicago, priority 1995, dated 1997)
